Consider two molecules from patent publication US6949521B2, “Therapeutic azide compounds” (priority 1995, dated 2005).

One data set concerns HIV-1. Particulars: relative to parent compounds ddA, ddI; cited from earlier work.
The nature of data set [1]: in vivo. Particulars: female, NIH-Swiss, mouse, in vivo; for half-life: t½; for AUC: AUC0-τ. An excerpt:
Animal studies. […] Animal studies were approved by the University of Georgia Animal Care and Use Committee and conducted in accordance with guidelines established by the Animal Welfare Act and the National Institutes of Health Guide for the Care and Use of Laboratory Animals. […] Animals were acclimatized to this environment for one week prior to the experiments.
At selected time intervals, mice (three animals per each time point) were anesthetized with diethyl ether and sacrificed by exsanguination via left ventricular heart puncture. Serum was harvested from blood collected. The brain was excised, rinsed with normal saline, blotted dry and weighed.
Analytical Methodology. […] The brain or liver tissue were homogenized in a 1:1 (g:mL) ratio with ice cold isotonic 0.05 M phosphate buffer, pH 7.4. […] Acetonitrile (600 μL) containing 0.1% acetic acid was added while vortexing to precipitate proteins. The tubes were centrifuged at 3,000 rpm for five minutes and the supernatant was transferred to a clean tube. Supernatant was evaporated to dryness under a stream of nitrogen gas at room temperature. The residual film was reconstituted in 110 μL of mobile phase and 50 μL was injected onto the HPLC.
Chromatographic separations were performed using a Hypersil ODS column 150×4.5 mm, 5 μm particle size (Alltech Associates, Deerfield, Ill.) preceded by a guard column packed with 30-40 μm pellicular Perisorb RP-18. Mobile phase flow rate was 2 mL/min. For the analysis of FAAddP and 2′-F-ara-ddA, the mobile phase consisted of 7% (v/v) acetonitrile in 80 mM sodium acetate, pH 5.0. […] Eluants were monitored at a UV wavelength of 260 nm.
Nucleoside standards ranging from 0.04 μg/mL to 100 μg/mL, prepared in blank PBS, serum, brain homogenate and liver homogenate were treated the same as unknown samples. Samples with nucleoside concentrations greater than 100 μg/mL were diluted with the appropriate blank matrix.
Data analysis in vivo studies. Nucleoside concentration as a function of time data were analyzed by a non-compartmental technique. […] Relative brain exposure (re) was calculated from AUCbrain/AUCserum.

For data set [2] the following is noted: mice; after oral and intravenous prodrug 2′-F-ara-ddP administration; cited from earlier work.
For data set [3] the following is noted: in vivo; cited from earlier work.
The conditions of data set [4]: mouse, in vivo, iv, 100 mg/kg.
Method: (§1) Analysis. […] All the solvents were of HPLC grade. Chromatography was performed on an Altech Hypersil ODS C18 (5 μm particle size, 4.5×150 mm, Altech Associates, Deerfield, Ill.).
(§2) In vivo pharmacokinetics: Female NIH Swiss mice (Harland Sprague-Dawley, Indianapolis, Ind.) weighing 24-28 g were used for the pharmacokinetic experiments.
(§3) At least three animals each were sacrificed at 0.08, 0.025, 0.5, 0.75, 1.0, 2.0, 3.0, 4.0, 5.0 and 6.0 hours after drug administration. Blood (serum) from the heart and whole-brain samples were collected. Serum samples were treated immediately and brain samples were frozen at −20° C. until analysis. To determine the nucleoside concentrations in the serum, a know amount of serum sample, 50 μL of the internal standard (AzdU, 5 μg/mL) and 1.0 mL of acetonitrile as a protein precipitant were added to polypropylene microcentrifuge tubes (1.7 mL). Tubes were mixed and centrifuged at 9,000 rpm for 10 minutes.
(§4) After homogenization, 1.8 mL of acetonitrile was added to tissue homogenates, samples were mixed and centrifuged at 9,000 rpm for 10 minutes. The resulting supernatant from the serum or the brain was transferred to a clean tube and dried under a stream of nitrogen gas at 22° C. The residue was reconstituted in 220 μL of mobile phase D and after centrifugation at 12,000 rpm for 40 min, 100-150 μL was injected for the HPLC analysis. […] After each assay, the column was equilibrated to initial conditions for 7 minutes.
(§5) The area under concentration (AUC) versus time profiles from time zero to the last measured concentration were determined by the linear trapezoidal rule and the AUC from the time of the last measured concentration to infinity was determined by dividing the last determined concentration by the least-squares elimination rate constant (λZ). […] The relative tissue exposure (re) of the compounds was calculated from AUCTissue/AUCserum.
The nature of data set [5]: In vitro metabolism study of 6-AAP and ara-A in mouse liver homogenate, serum and brain homogenate.
Method: All the solvents were of HPLC grade. Chromatography was performed on an Altech Hypersil ODS C18 (5 μm particle size, 4.5×150 mm, Altech Associates, Deerfield, Ill.).
In vitro metabolism study. Female NIH Swiss mice (Harland Sprague-Dawley, Indianapolis, Ind.) were sacrificed and serum, liver and brain tissues were collected before each experiment. Serum was collected from several animals. The brain and liver were washed in normal saline at 4° C., wiped and then weighed. […] Samples and blanks of volume 400 μL were collected at 0, 5, 15, and 30 minutes and at 1, 2, 3, 4 and 5 hours.
To measure the analyte concentrations in serum, liver or brain homogenate, 400 μL of sample was mixed with 50 μL of internal standard (AzdU, 5 μg/mL) and 0.7 mL of acetonitrile. After centrifugation, the supernatant was decanted to another tube and treated with anhydrous Na2SO4, then vortexed for one minute and centrifuged again. The organic layer was separated and evaporated under nitrogen stream at room temperature. The residue was reconstituted in mobile phase A and filtered through MPS-I micropartition system (3KD membranes (Amicon Inc., Beverly, Mass.) by centrifugation for 50 minutes at 2000 rpm to further clean-up the samples. 100 μL of filtrate was injected for analysis.
The nature of data set [6]: in vivo. Particulars: female, NIH Swiss, mouse, in vivo, iv, 100 mg/kg.
Method: as §1, §2, §3, §4, §5

What is called clearance is a measure of how efficiently the substance is removed, as volume per time. High values mean efficient removal, low ones inefficient removal. Usually half-life stands for the time needed for the level to fall by half in the phase considered. The low end stands for rapid decline, the high end for slow decline. By t½ is commonly meant the time in which the quantity being followed falls by half. In general, AUC refers to the area under the concentration-time curve, a measure of exposure. The low end stands for low exposure, the high end for high exposure.

In the case of `O=c1[nH]cnc2c1ncn2[C@@H]1O[C@H](CO)C[C@@H]1F` [2′-F-ara-ddI, 2′-fluoro-2′,3′-dideoxyinosine], the “potency in protecting CD4+ATH8 cells from cytopathogenic effects of HIV-1” value in the data set with HIV-1 was “as potent as the parent compounds”. This molecule gave a clearance in “in vivo [1]” (iv) of 36.3 mL/min/kg. In “in vivo [1]” (iv, 20 mg/kg), the Kp was 0.165 and the half-life is 24.6 min. In the data set “in vivo [1]” (iv, 55 mg/kg), the t½ amounted to 57.6 min and the half-life is 40.8 min. In “in vivo [1]” (iv, 112 mg/kg), this molecule showed an AUC/Dose of 0.025 μM · h/μmol/kg, an AUC of 10.1 µM·h and a half-life of 31.2 min. In “in vivo [1]” (po, 55 mg/kg), this molecule had an AUC/Dose of 0.046 μM · h/μmol/kg, an AUC of 6.7 µM·h and a half-life of 175 min. Also, the AUCbrain/AUCserum ratio entry in data set [2] was “approximately 36%”.
Consider `Nc1ncnc2c1ncn2[C@@H]1O[C@H](CO)[C@@H](O)[C@@H]1O` [ara-A, 9-(β-D-arabinofuranosyl)adenine, reference compound], for which the “half-life of ara-A” value in data set [3] was “four times longer”. In addition, in data set [4] (female, NIH Swiss), the “serum level, initial (declined from)” value was 18500 ± 3500 ng/mL. Besides, in data set [4], the “presence in the brain” value is recorded as “not found”. This molecule also displayed a T1/2 in data set [5] (6-AAP incubated in mouse liver homogenate) of 87.6 min. The same molecule registered a T1/2 in data set [5] (Ara-A incubated in mouse liver homogenate) of 2.4 min. In addition, in data set [5] (mouse liver homogenate), the “half-life of ara-A generated from 6-AAP alone, times greater than that of ara-A itself” value turned out to be 36 times. Moreover, in the data set “in vivo [6]”, the exposure (AUC) amounted to 3950 ± 200 ng·h/mL and the concentration at 25 minutes came out at 330 ± 250 ng/mL.
